In ChEMBL document CHEMBL1158101, “Protein tyrosine phosphatase-1B inhibitory activity of isoprenylated flavonoids isolated from Erythrina mildbraedii” (J Nat Prod, 2006):

What follows are compounds tested against T1, Tyrosine-protein phosphatase non-receptor type 1 (Homo sapiens, UniProt P18031) (assay: Inhibition of human recombinant PTP1B).
T1 sequence (P18031 whole entry): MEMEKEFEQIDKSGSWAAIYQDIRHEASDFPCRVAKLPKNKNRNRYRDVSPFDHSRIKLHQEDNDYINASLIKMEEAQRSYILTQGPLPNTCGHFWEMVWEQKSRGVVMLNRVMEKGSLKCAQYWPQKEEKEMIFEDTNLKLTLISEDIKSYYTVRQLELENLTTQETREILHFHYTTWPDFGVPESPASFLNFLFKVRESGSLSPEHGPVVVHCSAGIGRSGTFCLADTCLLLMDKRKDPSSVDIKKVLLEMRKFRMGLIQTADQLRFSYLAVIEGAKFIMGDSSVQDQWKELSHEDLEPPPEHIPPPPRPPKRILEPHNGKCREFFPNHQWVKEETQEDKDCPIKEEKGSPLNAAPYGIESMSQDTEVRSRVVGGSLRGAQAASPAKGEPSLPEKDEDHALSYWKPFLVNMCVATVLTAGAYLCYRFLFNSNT

Row | SMILES | IC50 [µM]
1 | COc1c(CC=C(C)C)cc(/C=C/C(=O)c2ccc(O)cc2O)cc1CC=C(C)C | 14.8
2 | COc1ccc(/C=C/C(=O)c2ccc(O)cc2O)cc1 | > 60
3 | COc1c(/C=C/C(C)(C)O)cc([C@@H]2CC(=O)c3ccc(O)cc3O2)cc1CC=C(C)C | > 60
4 | COc1cc(OC)c2c(=O)c(-c3ccc(O)cc3)coc2c1 | > 60
5 | O=C1C[C@@H](c2ccc(O)cc2)Oc2cc(O)ccc21 [LIQUIRTIGENIN] | > 60
6 | CC(C)=CCc1cc([C@@H]2CC(=O)c3c(O)cc(O)cc3O2)cc2c1OC(C)(C)C=C2 [SIGMOIDIN E] | 39.2
7 | O=C(/C=C/c1ccc(O)cc1)c1ccc(O)cc1O [ISOLIQUIRITIGENIN] | > 60

The next lines start with the values.

Row | IC50 [µM] | SMILES
8 | 39.7 | CC(C)=CCc1cc([C@@H]2CC(=O)c3c(O)cc(O)cc3O2)cc(CC=C(C)C)c1O [ABYSSINONE V]
9 | > 60 | C[C@@H]1O[C@@H](O[C@H]2[C@H](Oc3cc(O)c4c(c3)O[C@H](c3ccc(O)cc3)CC4=O)O[C@H](CO)[C@@H](O)[C@@H]2O)[C@H](O)[C@H](O)[C@H]1O [NARINGIN]
10 | 16 | CC(C)=CCc1cc([C@@H]2CC(=O)c3ccc(O)cc3O2)cc(CC=C(C)C)c1O [ABYSSINONE IV]
11 | 26.3 | COc1c(CC=C(C)C)cc([C@@H]2CC(=O)c3c(O)cc(O)cc3O2)cc1CC=C(C)C
12 | 21.2 | COc1c(CC=C(C)C)cc([C@@H]2CC(=O)c3ccc(O)cc3O2)cc1CC=C(C)C
13 | 41.5 | CC1(C)C=Cc2c(cc3occ(-c4ccc(O)cc4)c(=O)c3c2O)O1 [ALPINUMISOFLAVONE]
